Assay results from patent US3948885A, “5-Hydroxyl-1,2,3-triazole-4-carboxamide nucleoside” (ICN Pharmaceuticals, Inc., priority 1973, dated 1976).
Entries after “also recorded” stand apart in the source; their conditions may differ. Where two headings read alike, the source gives them in different places.

Columns and labels:
[1] = literature; cited from earlier work
measles virus = assay: Plaque inhibition (measles virus); format: cell-based; details: for inhibition at 20 µg/mL / inhibition at 100 µg/mL / inhibition at 500 µg/mL: Measles morbillivirus, 96 h, VERO cells, 4 days at 37°C, >=50% definite, 20 to 50 moderate, <20% little or no antiviral activity; for inhibition at 20 µg/mL: read-out: Percent Plaque Inhibition at 20 µg/mL; for inhibition at 100 µg/mL: read-out: Percent Plaque Inhibition at 100 µg/mL; for inhibition at 500 µg/mL: read-out: Percent Plaque Inhibition at 500 µg/mL
Type 1 herpes simplex = assay: In vitro activity against Type 1 herpes simplex, virus rating (VR) method of Sidwell et al; format: cell-based; details: for virus rating (VR): method of Sidwell et al. Appl. Microbiol. 22, 797 (1971)
[2] = D. C. Delong et al, 1971; cited from earlier work

| Compound | antiviral activity (in words) [1] | inhibition at 20 µg/mL (measles virus) [%] | inhibition at 100 µg/mL (measles virus) [%] | inhibition at 500 µg/mL (measles virus) [%] | activity against measles virus (in words) (measles virus; in vitro) | activity against Type 1 herpes simplex (in words) (Type 1 herpes simplex) | virus rating (VR) (Type 1 herpes simplex) | activity against Type 1 herpes simplex (in words) (Type 1 herpes simplex; Sodium Salt Monohydrate) | toxicity associated with employment in vivo (in words) [2] |
| --- | --- | --- | --- | --- | --- | --- | --- | --- | --- |
| NC(=O)c1ncn([C@@H]2O[C@H](CO)[C@@H](O)[C@H]2O)n1 [1-β-D-ribofuranosyl-1,2,4-triazole-3-carboxamide] | substantial range of antiviral activity |  |  |  |  |  |  |  |  |
| NC(=O)c1nnn([C@@H]2O[C@H](CO)[C@@H](O)[C@H]2O)c1O [Compound 1, 5-Hydroxy-1-β-D-ribofuranosyl-1,2,3-triazole-4-carboxamide] |  | 33 | 84 | 100 | exhibited in vitro activity | exhibited in vitro activity; also recorded: active | 0.6 |  |  |
| NC(=O)c1nn([C@@H]2O[C@H](CO)[C@@H](O)[C@H]2O)nc1O [Compound 2, 5-Hydroxy-2-β-D-ribofuranosyl-1,2,3-triazole-4-carboxamide] |  | 0 | 0 | 5 |  |  |  |  |  |
| NC(=O)c1[nH]nnc1O [Compound 3, 4-Hydroxy-1,2,3-triazole-5-carboxamide] |  | 33 | 60 | 89 |  | active | 0.6 |  |  |
| O.[NH-]C(=O)c1[nH]nnc1O.[Na+] [Compound 4, 4-Hydroxy-1,2,3-triazole-5-carboxamide Sodium Salt Monohydrate] |  |  |  |  |  |  | 0.5 | active |  |
| NC(=O)c1[nH]nc([C@@H]2O[C@H](CO)[C@@H](O)[C@H]2O)c1O [pyrazomycin] | exhibits a substantial range of antiviral activity |  |  |  |  |  |  |  | a degree of toxicity |
